This note sets out measurements from article PMC7461649 (Journal of medicinal chemistry, 2020).

Like-named read-outs stand apart in the source and are kept apart here.

Assay [1] addresses T1, TnmH (Streptomyces sp. CB03234, UniProt A0A125SA05). In words: biochemical.
Assay [2] concerns the target T1, TnmH. The following applies: saturating SAM (1 mM).
In assay [3] the target is TnmH (Streptomyces sp. CB03234). In words: SEC. Background: In gel filtration, larger molecules generally elute earlier.

Broadly, the Km is the substrate concentration at which the rate is half of its maximum. For the compound `C[S+](CC[C@H](N)C(=O)O)C[C@H]1O[C@@H](n2cnc3c(N)ncnc32)[C@H](O)[C@@H]1O` (stereo partly shown) [SAM], the Michaelis constant (Km) in assay [1] was found to be 62 ± 4.8 µM.

`COC(=O)C(O)C(C)(O)[C@@]12OC13c1cc(O)c4c(c1N[C@H]2C#C/C=C\C#C[C@H]3O)C(=O)c1c(ccc(O)c1O)C4=O` (stereo partly shown) [compound 11, TNM C]: the Michaelis constant (Km) in assay [2] (11 varied 7.8 to 500 μM, C-7 hydroxyl methylation to 13) is 31.1 ± 4.1 µM.

The stoichiometry N is a count of units in the complex or per binding partner. In turn, TnmH (enzyme) yielded a stoichiometry N in assay [3] of 2.

For the compound TNM F [compound 10], the Michaelis-Menten constant (Km) in assay [2] (10 varied 7.8 to 500 μM, C-7 hydroxyl methylation to 12) is 11.7 ± 1.2 µM.
